Test results: patent US20070212360A1, “Modulation of mitochondrial oxygen consumption for therapeutic purposes” (priority 2006, published 2007)

Key:
[1] = test system: RKO and RKOShHIF1α tumors; assay: Tumor hypoxia by pimonidazole immunofluorescence; assay type: in vivo, mouse
Description: FIG. 9. Increasing oxygen consumption by inhibition of HIF increases tumor hypoxia. (a-d) Pimonidazole staining of tumor sections from RKO (a,b) and RKOShHIF1α (c,d) tumors 24 h after treatment with PBS (a,c) or echinomycin (b,d). The tumor section is outlined in white, pimonidazole staining is shown in green, and the necrotic areas and cutting artifacts are shown in gray. (e) The mean hypoxic fraction of RKO and RKOShHIF1α tumors 24 h after treatment with PBS or echinomycin (n=4-5 tumors per group). Error bars represent the standard error of the mean. (*) indicates a significant difference (p<0.05).
Detection of tumor hypoxia by pimonidazole immunofluorescence. Mice bearing 100-300 mm^3 subcutaneous RKO and RKOshHIF tumors on either flank were treated with 0.12 mg/kg echinomycin ip or saline control, and 24 h later they were injected with the hypoxia marker drug pimonidazole (60 mg/kg ip) (Millipore, Temecula, Calif.). Three hours after pimonidazole injection, tumors were excised, and frozen in Tissue-Tek O.C.T. compound. Frozen sections (10 μm thick) from the center regions of tumors were cut, air dried, and fixed for 15 min in acetone at 4 C. Slides were then air dried, rehydrated in PBS, and blocked for 30 min in 4% FBS, 5% non-fat milk, and 0.1% Triton X-100 in PBS. Slides were incubated for 1 hr at room temperature with a FITC-conjugated monoclonal antibody against pimonidazole (Millipore) diluted 1:20 in blocking solution. Slides were washed, counterstained with 50 nM propidium iodide (PI), and mounted under a coverslip in Vectashield medium (Vector Labs, Burlingame, Calif.).
FITC and Pi fluorescent signals for entire tumor sections (one section per tumor) were acquired using a 4× objective lens on a Nikon Eclipse E800 microscope equipped with a motorized scanning stage, a 12-bit QImaging camera (OImaging, Burnaby, Canada), and Bioquant imaging software (Bioquant, Nashville, Tenn.). Acquisition parameters were held constant for all samples. ImageJ software (NIH, Bethesda, Md.) was used to analyze the resulting tiled images. […]

[2] = test system: RKO and RKOShHIF1α tumors; assay: Oxygen consumption of freshly explanted RKO tumor xenografts; assay type: in vivo, mouse; settings: 0.12 mg/kg echinomycin ip 24 h prior; vs PBS controls
Description: FIG. 7. Inhibition of HIF1 and PDK1 increases oxygen consumption in vitro and in vivo. (a) Western blots of extracts from RKO and Su.86 cells exposed to normoxia (N) or hypoxia (H) (0.5% O2) for 24 h in the presence or absence of 2 ng/ml echinomycin probed for the indicated proteins. (b) Oxygen consumption rates of RKO and RKOShHIF1α cells (left) and Su.86 cells (right) after 24 h treatment with normoxia or hypoxia (0.5% O2) with or without 2 ng/ml echinomycin. Data are normalized to normoxic samples. (c) Relative oxygen consumption of RKO cells treated with hypoxia (0.5% O2) for 24 h in the presence of increasing concentrations of echinomycin. (d) Oxygen consumption rates of freshly explanted tumor tissue from RKO (n=16) and RKOShHIF1α (n=8) xenografts. (e) Oxygen consumption rates of RKO and RKOShHIF1 tumors from mice treated with 0.12 mg/kg echinomycin ip 24 h prior (n=8), or 50 mg/kg DCA ip 4 h prior (n=8). Data is normalized to PBS treated controls (n=8-16). (*) indicate a significant difference relative to control (p<0.05).
Cell lines and tumor xenografts. […]
Oxygen consumption measurements. […] Oxygen consumption was measured in a 0.5 ml volume using an Oxytherm electrode unit (Hansatech, Norfolk, UK). […] Oxygen consumption was measured as above in a 1 ml volume and normalized to tissue weight.

[3] = 24 h after 0.12 mg/kg echinomycin ip vs vehicle

## CS[C@H]1SC[C@H]2C(=O)N(C)[C@@H](C(C)C)C(=O)OC[C@@H](NC(=O)c3cnc4ccccc4n3)C(=O)N[C@@H](C)C(=O)N(C)[C@@H]1C(=O)N(C)[C@@H](C(C)C)C(=O)OC[C@@H](NC(=O)c1cnc3ccccc3n1)C(=O)N[C@@H](C)C(=O)N2C [echinomycin]
[1]; [3]
  extent of hypoxia in RKOShHIF1α tumors (pimonidazole): no significant effect
  hypoxic fraction of RKO tumors (pimonidazole): increase in the hypoxic fraction
[1]; four treatment groups (RKO, RKOShHIF1α; echinomycin or vehicle)
  extent of necrosis in tumor sections: no difference
[2]
  tumor oxygen consumption, RKO wildtype tumors: significantly increased
  tumor oxygen consumption, RKOShHIF1 tumors: no effect
